Measured values reported in the NIST ThermoML archive (doi:10.1021/acs.jced.8b00554).
± gives the expanded uncertainty stated by the source.

Tests used:
[1] = Liquid, Vibrating tube method
[2] = refractive index (Na D-line) (dimensionless); settings: 293.15 K; 101.33 kPa; Liquid; Standard Abbe refractometry

Molecule `CCCO` [propan-1-ol] has a mass density ([1]; 313.15 K, 100 kPa) of 787.65 ± 4.7 kg/m3, a mass density ([1]; 313.15 K, 1020 kPa) of 788.65 ± 4.7 kg/m3 and a mass density ([1]; 313.15 K, 2000 kPa) of 789.51 ± 4.7 kg/m3. For the same molecule, the mass density ([1]; 313.15 K, 3010 kPa) was 790.39 ± 4.7 kg/m3, the mass density ([1]; 313.15 K, 4020 kPa) was 791.23 ± 4.8 kg/m3 and the mass density ([1]; 313.15 K, 5020 kPa) was 792.09 ± 4.8 kg/m3. The mass density ([1]; 313.15 K, 6010 kPa) was 792.93 ± 4.8 kg/m3, the mass density ([1]; 313.15 K, 7020 kPa) was 793.75 ± 4.8 kg/m3 and the mass density ([1]; 313.15 K, 8030 kPa) was 794.57 ± 4.8 kg/m3. For the same molecule, the mass density ([1]; 313.15 K, 9010 kPa) was 795.39 ± 4.8 kg/m3, the mass density ([1]; 313.15 K, 10020 kPa) was 796.2 ± 4.8 kg/m3 and the mass density ([1]; 313.15 K, 11010 kPa) was 796.99 ± 4.8 kg/m3. It also gave a mass density ([1]; 313.15 K, 12020 kPa) of 797.79 ± 4.8 kg/m3, a mass density ([1]; 313.15 K, 13010 kPa) of 798.57 ± 4.8 kg/m3 and a mass density ([1]; 313.15 K, 14020 kPa) of 799.35 ± 4.8 kg/m3. For the same molecule, the mass density ([1]; 313.15 K, 15030 kPa) was 800.12 ± 4.8 kg/m3, the mass density ([1]; 313.15 K, 16010 kPa) was 800.88 ± 4.8 kg/m3 and the mass density ([1]; 313.15 K, 17020 kPa) was 801.63 ± 4.8 kg/m3. For the same molecule, the mass density ([1]; 313.15 K, 18010 kPa) was 802.39 ± 4.8 kg/m3, the mass density ([1]; 313.15 K, 19020 kPa) was 803.13 ± 4.8 kg/m3 and the mass density ([1]; 313.15 K, 20010 kPa) was 803.87 ± 4.8 kg/m3. The mass density ([1]; 323.15 K, 100 kPa) was 779.29 ± 4.7 kg/m3, the mass density ([1]; 323.15 K, 1020 kPa) was 780.33 ± 4.7 kg/m3 and the mass density ([1]; 323.15 K, 2020 kPa) was 781.26 ± 4.7 kg/m3. The mass density ([1]; 323.15 K, 3010 kPa) was 782.17 ± 4.7 kg/m3, the mass density ([1]; 323.15 K, 4030 kPa) was 783.07 ± 4.7 kg/m3 and the mass density ([1]; 323.15 K, 5010 kPa) was 783.96 ± 4.7 kg/m3. For the same molecule, the mass density ([1]; 323.15 K, 6010 kPa) was 784.85 ± 4.7 kg/m3, the mass density ([1]; 323.15 K, 7000 kPa) was 785.72 ± 4.7 kg/m3 and the mass density ([1]; 323.15 K, 8010 kPa) was 786.58 ± 4.7 kg/m3. The mass density ([1]; 323.15 K, 9020 kPa) was 787.44 ± 4.7 kg/m3, the mass density ([1]; 323.15 K, 10030 kPa) was 788.29 ± 4.7 kg/m3 and the mass density ([1]; 323.15 K, 11020 kPa) was 789.12 ± 4.7 kg/m3. For the same molecule, the mass density ([1]; 323.15 K, 12010 kPa) was 789.95 ± 4.7 kg/m3, the mass density ([1]; 323.15 K, 13020 kPa) was 790.78 ± 4.8 kg/m3 and the mass density ([1]; 323.15 K, 14030 kPa) was 791.59 ± 4.8 kg/m3. For the same molecule, the mass density ([1]; 323.15 K, 15030 kPa) was 792.41 ± 4.8 kg/m3, the mass density ([1]; 323.15 K, 16000 kPa) was 793.2 ± 4.8 kg/m3 and the mass density ([1]; 323.15 K, 17010 kPa) was 794 ± 4.8 kg/m3. The mass density ([1]; 323.15 K, 18030 kPa) was 794.78 ± 4.8 kg/m3, the mass density ([1]; 323.15 K, 19030 kPa) was 795.56 ± 4.8 kg/m3 and the mass density ([1]; 323.15 K, 20020 kPa) was 796.33 ± 4.8 kg/m3. For the same molecule, the mass density ([1]; 333.15 K, 100 kPa) was 770.58 ± 4.6 kg/m3, the mass density ([1]; 333.15 K, 1030 kPa) was 771.74 ± 4.6 kg/m3 and the mass density ([1]; 333.15 K, 2020 kPa) was 772.72 ± 4.6 kg/m3. The mass density ([1]; 333.15 K, 3020 kPa) was 773.69 ± 4.6 kg/m3, the mass density ([1]; 333.15 K, 4030 kPa) was 774.64 ± 4.7 kg/m3 and the mass density ([1]; 333.15 K, 5020 kPa) was 775.59 ± 4.7 kg/m3. The mass density ([1]; 333.15 K, 6020 kPa) was 776.52 ± 4.7 kg/m3, the mass density ([1]; 333.15 K, 7010 kPa) was 777.45 ± 4.7 kg/m3 and the mass density ([1]; 333.15 K, 8020 kPa) was 778.36 ± 4.7 kg/m3. The mass density ([1]; 333.15 K, 9010 kPa) was 779.27 ± 4.7 kg/m3, the mass density ([1]; 333.15 K, 10030 kPa) was 780.16 ± 4.7 kg/m3 and the mass density ([1]; 333.15 K, 11020 kPa) was 781.05 ± 4.7 kg/m3. The mass density ([1]; 333.15 K, 12030 kPa) was 781.93 ± 4.7 kg/m3, the mass density ([1]; 333.15 K, 13010 kPa) was 782.79 ± 4.7 kg/m3 and the mass density ([1]; 333.15 K, 14030 kPa) was 783.65 ± 4.7 kg/m3. It also gave a mass density ([1]; 333.15 K, 15030 kPa) of 784.5 ± 4.7 kg/m3, a mass density ([1]; 333.15 K, 16000 kPa) of 785.34 ± 4.7 kg/m3 and a mass density ([1]; 333.15 K, 17030 kPa) of 786.17 ± 4.7 kg/m3. For the same molecule, the mass density ([1]; 333.15 K, 18010 kPa) was 787 ± 4.7 kg/m3, the mass density ([1]; 333.15 K, 19020 kPa) was 787.81 ± 4.7 kg/m3 and the mass density ([1]; 333.15 K, 20000 kPa) was 788.62 ± 4.7 kg/m3. The mass density ([1]; 343.15 K, 100 kPa) was 761.6 ± 4.6 kg/m3, the mass density ([1]; 343.15 K, 1010 kPa) was 762.86 ± 4.6 kg/m3 and the mass density ([1]; 343.15 K, 2020 kPa) was 763.91 ± 4.6 kg/m3. It also gave a mass density ([1]; 343.15 K, 3000 kPa) of 764.93 ± 4.6 kg/m3, a mass density ([1]; 343.15 K, 4020 kPa) of 765.95 ± 4.6 kg/m3 and a mass density ([1]; 343.15 K, 5020 kPa) of 766.96 ± 4.6 kg/m3. For the same molecule, the mass density ([1]; 343.15 K, 6020 kPa) was 767.95 ± 4.6 kg/m3, the mass density ([1]; 343.15 K, 7030 kPa) was 768.93 ± 4.6 kg/m3 and the mass density ([1]; 343.15 K, 8020 kPa) was 769.91 ± 4.6 kg/m3. For the same molecule, the mass density ([1]; 343.15 K, 9000 kPa) was 770.86 ± 4.6 kg/m3, the mass density ([1]; 343.15 K, 10020 kPa) was 771.81 ± 4.6 kg/m3 and the mass density ([1]; 343.15 K, 11030 kPa) was 772.74 ± 4.6 kg/m3. The mass density ([1]; 343.15 K, 12020 kPa) was 773.67 ± 4.7 kg/m3, the mass density ([1]; 343.15 K, 13010 kPa) was 774.59 ± 4.7 kg/m3 and the mass density ([1]; 343.15 K, 14000 kPa) was 775.49 ± 4.7 kg/m3. For the same molecule, the mass density ([1]; 343.15 K, 15010 kPa) was 776.39 ± 4.7 kg/m3, the mass density ([1]; 343.15 K, 16020 kPa) was 777.28 ± 4.7 kg/m3 and the mass density ([1]; 343.15 K, 17020 kPa) was 778.16 ± 4.7 kg/m3. For the same molecule, the mass density ([1]; 343.15 K, 18000 kPa) was 779.02 ± 4.7 kg/m3, the mass density ([1]; 343.15 K, 19020 kPa) was 779.89 ± 4.7 kg/m3 and the mass density ([1]; 343.15 K, 20010 kPa) was 780.74 ± 4.7 kg/m3. For the same molecule, the mass density ([1]; 353.15 K, 100 kPa) was 752.39 ± 4.5 kg/m3, the mass density ([1]; 353.15 K, 1010 kPa) was 753.65 ± 4.5 kg/m3 and the mass density ([1]; 353.15 K, 2010 kPa) was 754.76 ± 4.5 kg/m3. The mass density ([1]; 353.15 K, 2990 kPa) was 755.86 ± 4.5 kg/m3, the mass density ([1]; 353.15 K, 4000 kPa) was 756.96 ± 4.5 kg/m3 and the mass density ([1]; 353.15 K, 5000 kPa) was 758.04 ± 4.5 kg/m3. The mass density ([1]; 353.15 K, 6000 kPa) was 759.1 ± 4.6 kg/m3, the mass density ([1]; 353.15 K, 7010 kPa) was 760.14 ± 4.6 kg/m3 and the mass density ([1]; 353.15 K, 7990 kPa) was 761.16 ± 4.6 kg/m3. For the same molecule, the mass density ([1]; 353.15 K, 8990 kPa) was 762.2 ± 4.6 kg/m3, the mass density ([1]; 353.15 K, 9990 kPa) was 763.21 ± 4.6 kg/m3 and the mass density ([1]; 353.15 K, 11010 kPa) was 764.2 ± 4.6 kg/m3. For the same molecule, the mass density ([1]; 353.15 K, 12010 kPa) was 765.19 ± 4.6 kg/m3, the mass density ([1]; 353.15 K, 13000 kPa) was 766.16 ± 4.6 kg/m3 and the mass density ([1]; 353.15 K, 14010 kPa) was 767.13 ± 4.6 kg/m3. For the same molecule, the mass density ([1]; 353.15 K, 15010 kPa) was 768.07 ± 4.6 kg/m3, the mass density ([1]; 353.15 K, 16010 kPa) was 769.01 ± 4.6 kg/m3 and the mass density ([1]; 353.15 K, 17010 kPa) was 769.94 ± 4.6 kg/m3. It also gave a mass density ([1]; 353.15 K, 17990 kPa) of 770.86 ± 4.6 kg/m3, a mass density ([1]; 353.15 K, 18990 kPa) of 771.76 ± 4.6 kg/m3 and a mass density ([1]; 353.15 K, 19990 kPa) of 772.67 ± 4.6 kg/m3. It also gave a mass density ([1]; 363.15 K, 100 kPa) of 743.01 ± 4.5 kg/m3, a mass density ([1]; 363.15 K, 1020 kPa) of 744.08 ± 4.5 kg/m3 and a mass density ([1]; 363.15 K, 2030 kPa) of 745.28 ± 4.5 kg/m3. The mass density ([1]; 363.15 K, 3030 kPa) was 746.48 ± 4.5 kg/m3, the mass density ([1]; 363.15 K, 4020 kPa) was 747.65 ± 4.5 kg/m3 and the mass density ([1]; 363.15 K, 5000 kPa) was 748.81 ± 4.5 kg/m3. It also gave a mass density ([1]; 363.15 K, 6020 kPa) of 749.94 ± 4.5 kg/m3, a mass density ([1]; 363.15 K, 7020 kPa) of 751.07 ± 4.5 kg/m3 and a mass density ([1]; 363.15 K, 8010 kPa) of 752.18 ± 4.5 kg/m3. It also gave a mass density ([1]; 363.15 K, 9000 kPa) of 753.27 ± 4.5 kg/m3, a mass density ([1]; 363.15 K, 10030 kPa) of 754.35 ± 4.5 kg/m3 and a mass density ([1]; 363.15 K, 11010 kPa) of 755.41 ± 4.5 kg/m3. The mass density ([1]; 363.15 K, 12010 kPa) was 756.47 ± 4.5 kg/m3, the mass density ([1]; 363.15 K, 13010 kPa) was 757.5 ± 4.5 kg/m3 and the mass density ([1]; 363.15 K, 14000 kPa) was 758.53 ± 4.6 kg/m3. The mass density ([1]; 363.15 K, 15020 kPa) was 759.54 ± 4.6 kg/m3, the mass density ([1]; 363.15 K, 16010 kPa) was 760.54 ± 4.6 kg/m3 and the mass density ([1]; 363.15 K, 17030 kPa) was 761.52 ± 4.6 kg/m3. For the same molecule, the mass density ([1]; 363.15 K, 18010 kPa) was 762.51 ± 4.6 kg/m3, the mass density ([1]; 363.15 K, 19000 kPa) was 763.47 ± 4.6 kg/m3 and the mass density ([1]; 363.15 K, 20020 kPa) was 764.42 ± 4.6 kg/m3. The refractive index [2] was 1.3852 ± 0.004.
